This data set in a line: hygroscopicity. It counts as physicochemical. The settings on record: crystals from acetone/ether, monohydrate.

Regarding `C=C(COC(=O)CCCCCC[n+]1ccsc1)COC(=O)NCCCCCCCCCCCCCCCCCC` [Example 46, 1-Octadecylaminocarbonyloxy-3-[7-(3-thiazolio)heptanoyloxy]-2-methylenepropane bromide], the hygroscopicity entry is reported as “Hygroscopic”.
